# Reference: patent US10669287B2, “Curcumin-boron complex and pharmaceutical containing same” (JAPAN SCIENCE AND TECHNOLOGY AGENCY, priority 2016, dated 2020)
# Columns and labels:
# [1] = molecular target: T1, Aβ1-42 (Homo sapiens, UniProt P05067); assay: Oxygenation under mouse skin, Test Example 7; assay type: in vivo; details: microtube with Aβ1-42 20 μM aggregated 3 hours, implanted in back skin, LED 780 nm, 30 minutes
# T1 construct: phosphate buffer (pH 7.4)/cell culture solution (containing 0.1% horse serum) (1:3) containing Aβ1-42 (10 μM)
# T1 sequence (P05067 672-713): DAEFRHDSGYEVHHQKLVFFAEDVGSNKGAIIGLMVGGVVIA
# Method: A microtube containing a phosphate buffer containing Aβ1-42 (20 μM, aggregated in advance for 3 hours) and the compound E or a compound 3 [9-(6-bromo-3-methyl-1,3-benzotriazol-3-ium-2-yl)-julolidine] was implanted in the back skin of a wild mouse, and light irradiation with an LED lamp was performed from the outside of the mouse body at a wavelength of 780 nm for 30 minutes (FIG. 10). As a control experiment, another microtube containing the same components (Aβ1-42 (20 μM, aggregated in advance for 3 hours) and the compound E or the compound 3) was directly subjected to light irradiation outside of the mouse body. The reaction mixture was analyzed by using a MALDI-TOF MS, and then subjected to ZipTip treatment for analysis. The percentage of oxygenation ratio was calculated from the percentage of oxygenation ratio under the skin and the oxygenation ratio outside of the skin “[oxygenation ratio under mouse skin/oxygenation ratio outside of mouse skin]×100”.
# [2] = molecular target: T1, Aβ1-42; assay: In vitro oxygenation experiment using Aβ1-42 as a substrate (MALDI-TOF MS), Test Example 1; assay type: biochemical; details: test compound 1 μM, Aβ1-42 10 μM, LED irradiation at both 660 nm and 730 nm, 37° C.
# Method: An in vitro oxygenation experiment using Aβ1-42 as a substrate was conducted to confirm that each of the inventive compounds actually have Aβ oxygenation activity. A test compound (1 μM in each case) was added to phosphate buffer (pH 7.4)/cell culture solution (containing 0.1% horse serum) (1:3) containing Aβ1-42 (10 μM), and incubated under LED irradiation (wavelength: 660 nm, 730 nm) at 37° C., and then the reaction was tracked by using a mass spectrometer (MALDI-TOF MS). The native Aβ1-42 and the Na^+ adduct were mainly observed before light irradiation. After light irradiation, an ion peak indicating the presence of the oxygenated form was observed over time (FIG. 1, FIG. 2).
# [3] = molecular target: T2, somatostatin (Sst) (Homo sapiens, UniProt P61278); assay: Aβ selectivity of oxygenation, Test Example 9; assay type: biochemical; details: peptide 20 μM, catalyst 5 μM, 780 nm (7 mW), 37° C., 30 minutes
# T2 construct: angiotensin-IV (AT4), Met-enkephalin (ME), or somatostatin (Sst) (20 μM in each case)
# Method: (§1) Aβ1-42 isopeptide (concentration: 250 μM in 0.1% aqueous solution of trifluoroacetic acid), angiotensin IV (200 μM aqueous solution), Met-enkephalin (200 μM aqueous solution), and somatostatin (200 μM aqueous solution) were added to a phosphate buffer or phosphate buffer saline (pH 7.4) (with 0.1 M aqueous solution of sodium hydroxide, as necessary) so that a final peptide concentration of 20 μM or 40 μM (pH 7.4) was reached. Before being subjected to oxygenation reaction, the Aβ1-42 solution was incubated at 37° C. for 1 to 3 hours. The phosphate buffer containing 40 μM of Aβ was diluted with a Dulbecco's modified Eagle's medium (DMEM, Life Technologies) containing 0.1% horse serum and buffered with 25 mM of 4-(2-hydroxyethyl)-1-piperazineethanesulfonic acid (HEPES).
# (§2) Solutions of the compounds with a final concentration of 2 μM were used for evaluation of oxygenation of Aβ1-42. Solutions of the compounds with a final concentration of 5 μM were used for evaluation of peptide selectivity. […] A control group without light irradiation was additionally prepared. Reaction was analyzed through monitor analysis with a MALDI-TOF MS. Degree of oxygenation was determined as a ratio: degree of oxygenation (%)=(total of MS intensities for n[O] adducts)/(MS intensity for native+total of MS intensities for n[O] adducts)×100. Aliquots of each reaction solution were desalted with a ZipTip U-C18 (Merck Millipore), as necessary, before mass spectrometry.
# [4] = molecular target: T3, angiotensin-IV (AT4) (Homo sapiens, UniProt P01019); assay: Aβ selectivity of oxygenation, Test Example 9; assay type: biochemical; details: peptide 20 μM, catalyst 5 μM, 780 nm (7 mW), 37° C., 30 minutes
# T3 construct: angiotensin-IV (AT4), Met-enkephalin (ME), or somatostatin (Sst) (20 μM in each case)
# Method: as §1, §2
# [5] = molecular target: T4, Met-enkephalin (ME) (Homo sapiens, UniProt P01210); assay: Aβ selectivity of oxygenation, Test Example 9; assay type: biochemical; details: peptide 20 μM, catalyst 5 μM, 780 nm (7 mW), 37° C., 30 minutes
# T4 construct: angiotensin-IV (AT4), Met-enkephalin (ME), or somatostatin (Sst) (20 μM in each case)
# Method: as §1, §2
# [6] = molecular target: T5, Aβ peptide (Homo sapiens, UniProt P05067); assay: Aβ selectivity of oxygenation, Test Example 9; assay type: biochemical; details: peptide 20 μM, catalyst 5 μM (25 mol %), 780 nm (7 mW), 37° C., 30 minutes
# T5 construct: Aβ1-42 isopeptide (concentration: 250 μM in 0.1% aqueous solution of trifluoroacetic acid)
# T5 sequence (P05067 672-713): as above
# Method: as §1, §2
# [7] = Conversion of furfuryl alcohol under different glycerol concentrations, Test Example 8; details: compound 2 μM, furfuryl alcohol 2 mM, glycerol-methanol 0, 10, 30, or 50% glycerol, 780 nm, room temperature
# Method: To a glycerol-methanol mixed solvent (glycerol: 0, 10, 30, or 50%), furfuryl alcohol or N-benzoyl-Met (2 mM in each case) and the compound E (2 μM) were added, and the mixture was subjected to light irradiation (wavelength: 780 nm) at room temperature, and the concentration of furfuryl alcohol or N-benzoyl-Met was quantified by using a UV absorptiometer with LC/MS 10 minutes, 20 minutes, and 30 minutes after the initiation of light irradiation.
# [8] = system: PC 12 cells; assay: Action on cells through selective oxygenation of Aβ1-42, WST-8 cell viability, Test Example 3; assay type: cell-based, rat; details: Aβ 10 μM, compound E 1 or 3 μM, 48 hours
# Method: A phosphate buffer saline (pH 7.4) containing Aβ (40 μM) was incubated at 37° C. for 3 hours. Subsequently, the compound E was added thereto (4 or 12 μM). A culture medium for rat adrenal medulla-derived pheochromocytoma PC 12 cells (purchased from RIKEN, Japan) seeded on a poly-D-lysine-coated 96-well plate was replaced with 75 μL of a Dulbecco's modified Eagle's medium containing 0.1% horse serum, and the culture was incubated in a 5% CO2 atmosphere at 37° C. for 1 day, and 25 μL of the phosphate buffer saline (pH 7.4) containing Aβ and the compound E was then added thereto (final volume: 100 μL, final concentration of Aβ: 10 μM, final concentration of compound E: 1 or 3 μM). […] Finally, the Cell Count Reagent SF (10 μL: purchased from NACALAI TESQUE, INC.) containing WST-8 was added, and the culture was incubated in a 5% CO2 atmosphere at 37° C. for 3 hours, and thereafter the cell viability was determined from the absorbance at 450 nm (reference wavelength: 655 nm).
# From the results shown in FIG. 4, an attempt was made to examine whether the toxicity of Aβ1-42 can be reduced through oxygenation of the Aβ1-42 in the presence of cells. […] The cell viability was determined through measurement of the absorption by WST-8 at 450 nm by using a plate reader.
compound,measurement,setting,value
O=C(O)CCCCCN1CCCc2cc(/C=C/C3=[O+][B-](F)(C(F)(F)C(F)(F)F)OC(/C=C/c4cc5c6c(c4)CCCN6CCC5)=C3Br)ccc21 (stereo not drawn) [Compound E],percentage of oxygenation ratios [oxygenation ratio under mouse skin/oxygenation ratio outside of mouse skin]×100,[1],65%
same,oxygenation of Aβ1-42 under light irradiation,[2],oxygenation of the Aβ proceeded
same,oxygenation rate of somatostatin,[3],lower than 5%
same,oxygenation rate of angiotensin-IV,[4],lower than 5%
same,oxygenation rate of Met-enkephalin,[5],lower than 5%
same,oxygenation of pre-aggregated Aβ peptide,[6],44%
same,oxygenation reaction rate of furfuryl alcohol,[7],higher as the viscosity of the solvent was higher
same,cell viability with Aβ1-42 and compound E,"[8]; under LED irradiation 660 nm, 10 mW, 5 minutes",the cell viability was significantly improved
same,cell viability with Aβ1-42 and compound E,[8]; without light irradiation,significant cell death
